The text below walks through data of patent US20180282403A1, “AGENTS FOR REDUCING THE ACTIVITY OF GDF15” (GENAGON THERAPEUTICS AB, priority 2015, published 2018).

Holding throughout (format): cell-based
Assay [1] concerns QRFPR. The assay is described as follows: In situ PLA detection of QRFPR at the cell surface in U2OS osteosarcoma cells. The note with it: U2OS cells, GDF15 alone; FIG. 9E. From the text:
A-D) In situ PLA detection of the Rab11-QRFPR complex following exposure of MCF7 cells to GDF15. A) +Ctrl peptide. B) +QRFPR extracellular N-terminal peptide. C-D) +QRFPR extracellular loop3 (domain 4) peptide. The level of the Rab11-QRFPR complex is reduced by the peptide from extracellular loop3 of QRFPR. E) in situ PLA detection of QRFPR in U2OS osteosarcoma cells.
We choose to use this assay as a way to investigate if the activity of GDF15 could be inhibited by various agents. […] GDF15-induced formation of RAB11/QRFPR endosomes is inhibited by QRFPR peptides (FIG. 9A-D). Equal amounts of a mastermix of GDF15 was aliquoted and pre-incubated in PBS with the various receptor fragment before addition to cells. Sequentially, the cells were treated with either PBS, GDF15 or GDF15/QRFPR-derived peptide mixes.

The subject of the next assay is CD14+ cells. The assay is described as follows: Cytokine secretion by LPS-stimulated CD14+ cells (Proseek assay). As to conditions: LPS stimulated CD14+ cells incubated with GDF15. As for the experimental part: CD14+ cells where isolated and cultured in the presence or absence of GDF15 in a LPS stimulated culture.
Buffy coat cell suspension or heparinized blood samples were diluted with sterile, room temperature PBS. Peripheral blood samples are diluted 1:1, whereas buffy coats are diluted to a final volume of 120 ml (in a standard buffy coat this will result in slightly greater dilution than 1:1). The diluted cell suspension was layered onto Ficoll Paque PLUS. For one buffy 4×15 ml aliquots are used (30 ml of diluted cell suspension/tube). Cells were centrifuged at 400×g for 30 min at room temperature and transferred to a new 50 ml tube. Cells were washed once and resuspended in 20 ml PBS.
Mononuclear cell suspension was pelleted by centrifugation. Cells were resuspended in Stemcell buffer at a concentration of 10^8 cells/ml and transferred to a round bottom 14 ml tube. EasySep Positive Selection cocktail at was added at 100 μl/ml cells, mixed by gentle pipetting, and incubated at room temperature for 15 min. 50 μl EasySep Magnetic Nanoparticles per 1 ml cells were added and mixed, and incubated at room temperature for 10 min. Stemcell recommended medium was added to bring the cell suspension to a total volume of 5 ml and mixed by gently pipetting. The tube (without cap) was placed into the magnet and set aside for 5 min. After 5 minutes the supernatant was discarded. CD14+ labelled cells will remain inside the tube. The tube was removed from the magnet and add 5 ml Stemcell recommended medium was added and mixed by gently pipetting. The tube (without cap) was placed into the magnet and set aside for 5 min. The was step was repeated before the cells were resuspended in 5 ml complete RPMI medium. 50 μl of the CD14+ cell suspension was removed and counted to determine total cell number after dilution in Trypan blue solution and mounting on Fast Read 102 Counting Slides.
Adjust CD14+ cell suspension volume to a concentration of 0.833×10^6 cells/ml in complete RPMI medium. 300 μl of cell suspension is added to wells in a 48 well plate well (0.25×10^6 cells per well), and allowed to adhere for 90 min in an incubator at 37° C. Non-adherent cells were removed by removal of the supernatant after gently pipetting the medium. Cells were washed once with 300 μl pre-warmed complete RPMI medium and the medium aspirated off. 300 μl pre-warmed complete RPMI medium was added to each well and the cells were incubate overnight (20-24 h) in a cell incubator at 37° C.
A 17× stock solution of the desired GDF15 modulatory substances was diluted in complete RPMI. (20 μl of substance/well assayed). 20 μl of modulatory substance or medium/carrier (negative control) was added to each well and mixed by gentle pipetting. Cells were incubated for 30 min in a cell incubator at 37° C. A 17×GDF15 solution was prepared by diluting a 100 μg/ml stock solution to a concentration of 8.5 μg/ml (final concentration in culture 0.5 μg/ml) in complete RPMI. 20 μl of diluted GDF15 was added per well, and incubated overnight (18-20 h) in a cell incubator at 37° C.
A 18×LPS solution was prepared by diluting the LPS stock solution to a concentration of 18 ng/ml (final concentration in culture 1 ng/ml) in complete RPMI. 20 μl of LPS or medium (negative control) was added to each well and mixed by gentle pipetting. […]
Secreted proteins from cell cultures where quantified using multiplexed proximity extension assay, Proseek (Assarsson E et al PlosOne 2014) by Olink Proteomics AB (Uppsala Sweden). […]

The target of assay [2] is T1, QRFPR (Homo sapiens, UniProt Q96P65).
T1 construct: endogenous in cells
T1 sequence (Q96P65 1-431): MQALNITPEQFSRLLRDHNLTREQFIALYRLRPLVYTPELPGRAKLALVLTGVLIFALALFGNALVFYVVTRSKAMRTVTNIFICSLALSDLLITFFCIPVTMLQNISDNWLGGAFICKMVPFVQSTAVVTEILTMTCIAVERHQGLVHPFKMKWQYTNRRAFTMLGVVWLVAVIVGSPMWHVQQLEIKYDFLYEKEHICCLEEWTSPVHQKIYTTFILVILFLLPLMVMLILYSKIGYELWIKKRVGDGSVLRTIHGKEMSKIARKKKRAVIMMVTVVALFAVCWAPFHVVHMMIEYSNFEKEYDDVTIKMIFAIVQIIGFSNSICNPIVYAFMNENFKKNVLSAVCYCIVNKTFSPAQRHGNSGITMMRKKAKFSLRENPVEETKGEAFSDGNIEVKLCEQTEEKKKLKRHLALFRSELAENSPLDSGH
The assay is described as follows: QRFPR levels after prolonged GDF15 stimulation with or without proteasome inhibition. As to conditions: GDF15 18 hrs, absence of MG132; FIG. 6B. As for the experimental part:
This effect is not seen in cells which are treated with MG132 (FIG. 6D).

In the case of “GDF15: Growth and differentiation factor 15, from mammalian source or recombinant from E. coli (Abcam, Biovision)”, the “level of QRFPR at the cell surface” value in the assay on QRFPR [1] was “reduced by GDF15”. Besides, in the assay with CD14+ cells, the “LPS response secretion of IL12” value was “reduced” and the “LPS response secretion of TNF” value is “reduced”. In addition, the “levels of QRFPR” value with QRFPR [2] was “dramatically reduced the levels of QRFPR”.
